Results published in patent US20060008891A1, “Cathepsin G-related peptides as modulators of formylpeptide receptors (FPR)” (The Government of USA as repersented by the Secretary, …, priority 2004, published 2006).
Where “and” joins values, the source holds several entries; their conditions need not be identical. Equal values may be shown once. Entries after “also recorded” stand apart in the source; their conditions may differ.

Assays:
monocytes [1] = assay: Chemotaxis assay, monocytes; assay type: cell-based, human
Experimental: Human PBMC were isolated from leukopacks obtained through the courtesy of Transfusion Medicine Department, National Institutes of Health Clinical Center (Bethesda, Md.) by Ficoll-Hypaque density gradient centrifugation. Monocytes were purified from human PBMC by Percoll gradient to yield>90% pure preparations. […] H. Ali and R. Snyderman, Duke University (Durham, N.C.) and maintained in the presence of 0.8 mg/ml geneticin (G418, Life Technologies, Rockville, Md.) in DMEM supplemented with 10% FCS. B. Chemotaxis assay Migration of phagocytes and ETFR cells was assessed using a 48-well microchemotaxis chamber (Neuroprobe, Cabin John, Md.) as previously described (Hu et al. (2001) J Leukoc Biol 70 15512). Briefly, different concentrations of stimulants were placed in the wells of the lower compartment of the chamber, and 50 μl cells (1.5×10^6 cells/ml for monocyte and neutrophil, 1×10^6 ETFR cells/ml) were added to the wells of the upper compartment. The lower and upper compartments were separated by either a 5-μm (for monocyte) or a 10-μm pore size, collagen-coated (for ETFR cells) polycarbonate filter (Osmonics, Livermore, Calif.). After incubation at 37° C. in humidified air with 5% CO2 (60 min for neutrophils, 90 min for monocytes, 4.5 h for ETFR cells), the filter was removed and stained, and the cells migrating across the filter were counted with light microscopy. The results are presented as the mean number of cells (±SD) in three high power fields (HPFs). […] After thorough washing with cold medium (RPMI 1640, 1% BSA), the cells were resuspended and assayed. To measure the effect of various signaling inhibitors, unless otherwise indicated, the cells were pre-incubated at 37° C. for 60 min with the inhibitors, and were then added to the upper wells of the chemotaxis chamber.

monocytes [2] = assay: Calcium flux (Fura-2), monocytes; assay type: cell-based, human
Experimental: (§1) Monocytes or ETFR cells (10^7 cells/ml in RPMI 1640 containing 10% FBS) were loaded with 5 μM Fura-2 at room temperature (30 min for monocytes, 60 min for ETFR cells) in the dark. The cells were washed and resuspended (0.5×10^6 cells/ml) in saline buffer (138 mM NaCl, 6 mM KCl, 1 mM CaCl2, 10 mM HEPES, 5 mM glucose, and 1% BSA, pH 7.4). Two milliliters of the cell suspension were transferred to a quartz cuvette, which was placed in a luminescence spectrometer LS55 (Perkin-Elmer, Beaconsfield, UK). Calcium mobilization was measured by recording the ratio of the fluorescence excited at 340 and 380 nm in response to stimulants.

FPR [3] = molecular target: T1, FPR (Homo sapiens, UniProt P21462); assay: Calcium flux (Fura-2), ETFR cells; assay type: cell-based; conditions: CaG 10 μg/ml
T1 construct: expressed in transfected cells; host or cells: Rat basophilic leukemia (RBL) cells, stably transfected (ETFR cells); gift of H. Ali and R. Snyderman, Duke University
T1 sequence (P21462 1-350): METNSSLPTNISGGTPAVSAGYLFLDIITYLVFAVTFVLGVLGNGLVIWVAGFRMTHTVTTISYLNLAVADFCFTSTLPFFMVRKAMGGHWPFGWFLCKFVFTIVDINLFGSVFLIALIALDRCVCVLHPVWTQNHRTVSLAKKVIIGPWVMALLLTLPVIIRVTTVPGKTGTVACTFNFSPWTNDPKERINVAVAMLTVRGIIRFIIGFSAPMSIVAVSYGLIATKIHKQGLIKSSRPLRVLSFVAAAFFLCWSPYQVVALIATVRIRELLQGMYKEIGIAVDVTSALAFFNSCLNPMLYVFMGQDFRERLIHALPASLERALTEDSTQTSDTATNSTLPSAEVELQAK
Experimental: as §1

FPR [4] = molecular target: T1, FPR; assay: 3[H]-fMLF binding competition on monocytes and ETFR cells; conditions: 3 nM 3[H]-fMLF
From the text: The cells were then filtered onto Whatman paper discs, which were air-dried and measured for […].

FPR [5] = molecular target: T1, FPR; assay: FPR internalization (confocal microscopy), ETFR cells; assay type: cell-based; conditions: 30 min 37° C.
Experimental: For detection of FPR internalization, ETFR cells were seeded on coverslips and cultured overnight in DMEM containing 10% FCS at 37° C. After pretreatment with medium or stimulants for 30 minutes at 37° C., the cells were fixed in 0.25% paraformaldehyde for 15 min at 4° C. The cells were then permeabilized with 0.2% Tween 20 for 30 min at 4° C., followed by incubation with a monoclonal anti-human FPR antibody or isotype matched IgG for 30 min at 4° C. After three washes with 0.1% Tween 20 in DPBS, a FITC-labeled rat anti-mouse antibody (PharMingen) was applied to the cells for 30 min at 4° C. The coverslips were covered with DAPI, then mounted with an anti-fade, water-based mounting medium and analyzed under a laser scanning Zeiss LSM410 fluorescence confocal microscope.

ERK1/2 = assay: Phosphorylation of ERK1/2 in ETFR cells (Western blot); assay type: cell-based, rat
Experimental: (§2) ETFR cells were plated in Petri dishes and cultured in DMEM at 37° C. in humidified 5% CO2 atmosphere for 48 h. After further culture in serum-free DMEM overnight, the cells were treated with stimulants for indicated time periods. The reaction was stopped by adding 1 ml ice-cold PBS, and the cells were lysed in 1×SDS lysis buffer (62.5 mM Tris-HCl, 2% w/v SDS, 10% glycerol, 50 mM DTT, pH 6.8) and harvested into tubes for sonication. Proteins (50 μg for each sample) were resolved by SDS-PAGE and transferred onto nitrocellulose membranes (Bio-Rad, Hercules, Calif.). The membranes were blocked for 2 h at room temperature in 3% non-fat milk prepared in Tris-buffered saline-T (10 mM Tris-HCl, pH 7.5, 150 mM NaCl, 0.1% Tween 20) and probed with anti-p-ERK1/2, p-p38 MAPK, or p-Akt (1:1000) at room temperature for 1-2 h or at 4° C. overnight. The membranes were then washed and incubated with horseradish peroxidase-conjugated secondary antibodies diluted in Tris-buffered saline-T for 1 h at room temperature. The immune complexes on the membranes were visualized using ECL reagents. Total ERK1/2, p38 MAPK, and Akt were visualized by stripping the same membrane and probing with antibodies against total ERK1/2, p38 MAPK, and Akt.

Akt = assay: Phosphorylation of Akt in ETFR cells (Western blot); assay type: cell-based, rat
Experimental: as §2

Substance: CaG: Cathepsin G, serine protease purified from neutrophil granules, purchased from Athens Research & Technology
- concentration of maximal activity in monocyte migration (monocytes [1]; human monocytes): 5 μg/ml and 200 nM
- monocyte migration induced by stimulant (monocytes [1]; human monocytes): dose-dependently induced monocyte migration
- concentration range potently chemotactic (monocytes [1]; monocytes): 4 to 400 nM
- attenuation of monocyte chemotaxis to fMLF after preincubation (monocytes [1]; preincubated with CaG 10 μg/ml 30 min 37° C., low concentrations of fMLF): able to attenuate monocyte chemotaxis to low concentrations of fMLF
- Ca2+ flux (monocytes [2]; CaG 10 μg/ml): failed to induce significant Ca^2+ flux
- attenuation of Ca2+ response to fMLF (monocytes [2]; CaG 10 μg/ml, 0.1 nM fMLF): attenuated cell response induced by low concentrations of fMLF; also recorded: significantly attenuated cell response to 0.1 nM fMLF
- Ca2+ mobilizing activity (monocytes [2]; concentrations up to 20 μg/ml (800 nM)): lacked significant Ca^2+ mobilizing activity
- Ca2+ flux (FPR [3]): weak inducer of Ca^2+ flux; also recorded: induced a measurable level of Ca flux
- attenuation of Ca2+ response to fMLF (FPR [3]; 0.1 nM fMLF): attenuated cell response induced by low concentrations of fMLF; also recorded: significantly attenuated cell response to 0.1 nM fMLF
- IC50, displacement of 3[H]-fMLF binding (FPR [4]): 2.5 µg/mL
- FPR internalization (FPR [5]): significantly and dose-dependently induced FPR internalization
- time to activation of ERK1/2 (ERK1/2; ETFR cells): 1 to 5 min
- delay to reach maximal activity (MAPK phosphorylation) as compared with fMLF (ERK1/2; FPR transfected cells): 10 to 15 min
- time to activation of Akt (Akt): 1 to 5 min
